One experiment deals with BRD4 domain 1 (Homo sapiens, UniProt O60885). In words: Kd determination of inhibitors binding to BRD4 domain 1 (Epic label-free platform). The conditions noted are these: direct binding to immobilized BRD4 domain 1; tripling dilution series from 20µM; about 1hr equilibrium; rounded to whole number; read-out: Epic Kd BRD41. Here is the method:
(§1) Kd Determination of Inhibitors Binding to BRD4 Domain 1 and Domain 2
(§2) The binding of small molecule inhibitors to either BRD4 domain 1 or domain 2 were determined using the Epic, high-throughput, label-free platform (Corning, Lowell, MA). The Epic instrument incorporates an evanescent waveguide sensor within each well of its proprietary 384-well microplates. Direct binding of inhibitors to BRD4 immobilized onto the microplate well surface can be detected by exposing the waveguide to a broadband light source. The resulting resonant wavelength shift (measured in picometers (pm)) is proportional to the mass bound to the surface. Epic biochemical plates (Corning, Lowell, MA) were activated by adding 15 µL/well of 200 mM EDC and 50 mM Sulfo-NHS (Pierce Thermo Scientific, Rockford, IL) and incubated for 60 minutes at room temperature. Plates were washed three times with MilliQ water and dried by centrifugation (1 minute at 400 rpm). BRD4 immobilization was accomplished by resuspending the protein at a concentration of 150 µg/mL in 20 mM HEPES (pH 7) and adding 10 µL/well. […] Compound/inhibitor binding was determined by calculating difference between the baseline (first read) and second read. The resulting binding response was fitted to a single site binding isotherm in order to determine an equilibrium dissociation constant (Kd).

Another experiment concerns the target BRD4 domain 2 (Homo sapiens, UniProt O60885). In words: Kd determination of inhibitors binding to BRD4 domain 2 (Epic label-free platform). To be noted: direct binding to immobilized BRD4 domain 2; tripling dilution series from 20µM; about 1hr equilibrium; rounded to whole number. As to the method:
as §1, §2

Here are results for 27 compounds from EP3074389B1, “QUINOLINE DERIVATIVES AS BROMODOMAIN INHIBITORS” (Gilead Sciences, Inc., priority 2013, dated 2015).

Usually Kd stands for a measure of binding affinity in units of concentration.

For `Cc1noc(C)c1-c1cc(S(=O)(=O)N[C@@H]2CCC[C@H]2C(=O)NC2CCCC2)c2cccnc2c1` [Compound 35, (1R,2R)-N-cyclopentyl-2-(7-(3,5-dimethylisoxazol-4-yl)quinoline-5-sulfonamido)cyclopen tanecarboxamide], the Kd at BRD4 domain 1 was over 20000 nM; on BRD4 domain 2, 19700 nM.
As for `Cc1noc(C)c1-c1cc(S(=O)(=O)NC2CCCC2)c2cc(NCC(F)F)c(=O)[nH]c2c1` [Compound 79, N-cyclopentyl-3-((2,2-difluoroethyl)amino)-7-(3,5-dimethylisoxazol-4-yl)-2-oxo-1,2-dihydroquinoline-5-sulfonamide], the Kd at BRD4 domain 1 was 1350 nM; on BRD4 domain 2, 607 nM.
As to `Cc1noc(C)c1-c1cc(S(=O)(=O)NC2(C#N)CC2)c2cccnc2c1` [Compound 49, N-(1-cyanocyclopropyl)-7-(3,5-dimethylisoxazol-4-yl)quinoline-5-sulfonamide], the equilibrium dissociation constant (Kd) at BRD4 domain 1 was over 20000 nM; on BRD4 domain 2, 18800 nM.
Take `Cc1noc(C)c1-c1cc(S(=O)(=O)NC2CCCC2)c2ncc(=O)[nH]c2c1` [Compound 87, N-cyclopentyl-7-(3,5-dimethylisoxazol-4-yl)-2-oxo-1,2-dihydroquinoxaline-5-sulfonamide]: the dissociation constant Kd came to 2200 nM on BRD4 domain 1 and 1340 nM on BRD4 domain 2.
In the case of `Cc1noc(C)c1-c1cc(S(=O)(=O)NC2CCCC2)c2cc(-c3cccnc3)c(=O)[nH]c2c1` [Compound 29, N-cyclopentyl-7-(3,5-dimethylisoxazol-4-yl)-2-oxo-3-(pyridin-3-yl)-1,2-dihydroquinoline-5-sulfonamide], the dissociation constant Kd was 253 nM at BRD4 domain 1 and 241 nM at BRD4 domain 2.
On to `Cc1noc(C)c1-c1cc(S(=O)(=O)N[C@H]2C[C@@H](N)C2)c2cccnc2c1` [Compound 34, N-((1S,3S)-3-aminocyclobutyl)-7-(3,5-dimethylisoxazol-4-yl)quinoline-5-sulfonamide], for which the Kd at BRD4 domain 1 was determined as 5480 nM; on BRD4 domain 2, 11100 nM.
`CCOC(=O)N[C@H]1CCC[C@H]1NS(=O)(=O)c1cc(-c2c(C)noc2C)cc2ncccc12` [Compound 54, ethyl ((1S,2R)-2-(7-(3,5-ditnethylisoxazol-4-yl)quinoline-5-sulfonamido)cyclopentyl)carbamate]: the Kd on BRD4 domain 1 worked out at 5860 nM; on BRD4 domain 2, 7990 nM.
For the compound `CNc1cc2c(S(=O)(=O)NC3CCCC3)cc(-c3c(C)noc3C)cc2[nH]c1=O` [Compound 62, N-cyclopentyl-7-(3,5-dimethylisoxazol-4-yl)-3-(methytamino)-2-oxo-1,2-dihydroquinoline-5-sulfonamide], the values for the Kd at BRD4 domain 1 and on BRD4 domain 2 were 850 nM and 526 nM, respectively.
On to `Cc1noc(C)c1-c1cc(S(=O)(=O)N[C@@H](CC(C)(C)C)C(=O)N2CCNCC2)c2cccnc2c1` [Compound 81, (S)-N-(4,4-dimethyl-1-oxo-1-(piperazin-1-yl)pentan-2-yl)-7-(3,5-dimethylisoxazol-4-yl)quinoline-5-sulfonamide], for which the Kd on BRD4 domain 1 is 13700 nM; at BRD4 domain 2, over 20000 nM.
For `Cc1noc(C)c1-c1cc(S(=O)(=O)N(C)C2CC2)c2cccnc2c1` [Compound 9, N-cyclopropyl-7-(3,5-dimethylisoxazol-4-yl)-N-methylquinoline-5-sulfonamide] the same measures were over 20000 nM and 12500 nM.
As for `Cc1noc(C)c1-c1cc(S(=O)(=O)N[C@@H]2C[C@H]2c2ccccc2)c2cccnc2c1` [Compound 12, 7-(3,5-dimethylisoxazol-4-yl)-N-((1R,2S)-2-phenylcyclopropyl)qui noline-5-sulfonamide], the Kd on BRD4 domain 1 was 15800 nM; on BRD4 domain 2 it was over 20000 nM.
Turning to `Cc1noc(C)c1-c1cc(S(=O)(=O)NC2CCCC2)c2cc(C(N)=O)c(=O)[nH]c2c1` [Compound 69, 5-(N-cyclopentylsulfamoyl) -7-(3,5-dimethylisoxazol-4-yl)-2-oxo-1,2-dihydroquinoline-3-carboxamide], the Kd at BRD4 domain 1 turned out to be 7270 nM; on BRD4 domain 2 it was 1190 nM.
For `Cc1noc(C)c1-c1cc(S(=O)(=O)NC2CCCC2)c2cc(C(=O)O)c(=O)[nH]c2c1` [Compound 70, 5-(N-cyclopentylsulfamoyl) -7-(3,5-dimethylisoxazol-4-yl)-2-oxo-1,2-dihydroquinoline-3-carboxylic acid] the same measures were 8230 nM and 1960 nM.
As to `Cc1noc(C)c1-c1cc(S(=O)(=O)NC2CCCC2)c2cc(NCCN3CCCC3)c(=O)[nH]c2c1` [Compound 89, N-cyclopentyl-7-(3,5-dimethylisoxazol-4-yl)-2-oxo-3-((2-(pyrrolidin-1-yl)ethyl)amino)-1,2-dihydroquinoline-5-sulfonamide], the results for the equilibrium dissociation constant (Kd) at BRD4 domain 1 and on BRD4 domain 2 were 881 nM and 656 nM, respectively.
For `Cc1noc(C)c1-c1cc(S(=O)(=O)NC2CCCC2)c2cc(-n3ccnc3)c(=O)[nH]c2c1` [Compound 32, N-cyclopentyl-7-(3,5-dimethylisoxazol-4-yl)-3-(1H-imidazol-1-yl)-2-oxo-1,2-dihydroquinoline-5-sulfonamide] the same measures were 717 nM and 519 nM.
On to `Cc1noc(C)c1-c1cc(S(=O)(=O)NCC2CC(F)(F)C2)c2cccnc2c1` [Compound 11, N-((3,3-difluorocyclobutyl)methyl)-7-(3,5-dimethylisoxazol-4-yl)quinoline-5-sulfonamide], for which the Kd on BRD4 domain 1 is 12800 nM; at BRD4 domain 2, over 20000 nM.
For `Cc1noc(C)c1-c1cc(S(=O)(=O)NC2CCCC2)c2cc(NCC(C)(C)N)c(=O)[nH]c2c1` [Compound 99, 3-((2-amino-2-methylpropyl)amino)-N-cyclopentyl-7-(3,5-dimethylisoxazol-4-yl)-2-oxo-1,2-dihydroquinoline-5-sulfonamide] the same measures were 671 nM and 632 nM.
For `Cc1noc(C)c1-c1cc(S(=O)(=O)NC2(C(F)(F)F)CC2)c2cccnc2c1` [Compound 84, 7-(3,5-dimethylisoxazol-4-yl)-N-(1-(trifluoromethyl)cyclopropyl)quinoline-5-sulfonamide] the same measures were 2000 nM and 18200 nM.
Take `Cc1noc(C)c1-c1cc(S(=O)(=O)NC2CCC2)c2cccnc2c1` [Compound 10, N-cyclobutyl-7-(3,5-dimethylisoxazol-4-yl)quinoline-5-sulfonamide]: the Kd on BRD4 domain 1 was 3190 nM; on BRD4 domain 2, 2680 nM.
On to `Cc1noc(C)c1-c1cc(S(=O)(=O)NC2CCCC2)c2cc(NC(CO)CO)c(=O)[nH]c2c1` [Compound 92, N-cyclopentyl-3-((1,3-dihydroxypropan-2-yl)amino)-7-(3,5-dimethylisoxazol-4-yl)-2-oxo-1,2-dihydroquinoline-5-sulfonamide], for which the results for the equilibrium dissociation constant (Kd) on BRD4 domain 1 and at BRD4 domain 2 were 897 nM and 493 nM, respectively.
Turning to `Cc1noc(C)c1-c1cc(S(=O)(=O)NC2CCCC2)c2cc(-c3cnc(C)n3C)c(=O)[nH]c2c1` [Compound 30, N-cyclopentyl-3-(1,2-dimethyl-1H-imidazol-5-yl)-7-(3,5-dimethylisoxazol-4-yl)-2-oxo-1,2-dihydroquinoline-5-sulfonamide], the Kd at BRD4 domain 1 was determined as 6400 nM; at BRD4 domain 2 it was 1700 nM.
For `Cc1noc(C)c1-c1cc(S(=O)(=O)N[C@@H]2CCC[C@H]2C(=O)N2CCN(C)CC2)c2cccnc2c1` [Compound 71, 7-(3,5-dimethylisoxazol-4-yl)-N-((1R,2R)-2-(4-methylpiperazine-1-carbonyl)cyclopentyl) quinoline-5-sulfonamide] the same measures were 4890 nM and 4150 nM.
For `Cc1noc(C)c1-c1cc(S(=O)(=O)NC2CCCC2)c2cc(NCC3CC3)c(=O)[nH]c2c1` [Compound 76, N-cyclopentyl-3-((cyclopropylmethyl)amino)-7-(3,5-dimethylisoxazol-4-yl)-2-oxo-1,2-dihydroquinoline-5-sulfonamide] the same measures were 416 nM and 497 nM.
As to `Cc1noc(C)c1-c1cc(S(=O)(=O)N[C@@H]2CCC[C@H]2N)c2cccnc2c1` (stereo in doubt) [Compound 46, N-((1R,2R)-2-aminocyclopentyl)-7-(3,5-dimethylisoxazol-4-yl)quinoline-5-sulfonamide], the dissociation constant (Kd) on BRD4 domain 1 came out at 6420 nM; at BRD4 domain 2, 7830 nM.
For the compound `Cc1noc(C)c1-c1cc(S(=O)(=O)N[C@@H]2CCC[C@@H]2C(=O)NCc2nccn2C)c2cccnc2c1` [Compound 43, (1S,2R)-2-(7-(3,5-dimethylisoxazol-4-yl)quinoline-5-sulfonamido)-N-((1-methyl-1H-imidazol-2-yl)methyl)cyclopentan ecarboxamide], the Kd on BRD4 domain 1 is over 20000 nM; on BRD4 domain 2 it was 10700 nM.
Take `Cc1noc(C)c1-c1cc(S(=O)(=O)NC2CCCC2)c2cc(-n3cccn3)c(=O)[nH]c2c1` [Compound 33, N-cyclopentyl-7-(3,5-dimethylisoxazol-4-yl)-2-oxo-3-(1H-pyrazol-1-yl)-1,2-dihydroquinoline-5-sulfonamide]: the Kd is 760 nM on BRD4 domain 1 and 561 nM at BRD4 domain 2.
For `Cc1noc(C)c1-c1cc(S(=O)(=O)NC2CCCC2)c2ccc(Cl)nc2c1` [Compound 3, 2-chloro-N-cyclopentyl-7-(3,5-dimethylisoxazol-4-yl)quinoline-5-sulfonamide] the same measures were 1250 nM and 2970 nM.
